In US20180172669A1, “SCREENING AND USE OF PIPERIDINO PYRAZOLOPYRIMIDINE COMPOUND” (Institute of Basic Medical Sciences, Chinese Academy of …, priority 2015, published 2018):

Key:
[1] = system: Id1 promoter driven Venus-Luci dual reporter gene in ID1-V-LUC hES; assay: ID1-V-LUC hES luciferase assay with compound (Example 4); assay type: cell-based, human; settings: 18-24 h
Procedure: ID1-V-LUC hES were seeded in a 96-well plate and were grown to 80% confluency. The old medium was removed and the cells were washed with PBS, then mTeSR medium of human embryonic stem cell (Biowish.Co.,Ltd.) was added. The cells were starved for 6 hours prior to incubating with the compound: 1H-Pyrazolo[3,4-d]pyrimidine, 1-phenyl-4-(1-piperidinyl)- (Cas No :23000-46-6). The compound was serially diluted to 5, 2.5, 1.25, 0.625, 0.3 μg/mL in above-mentioned medium, and sequentially added in the 96-well plate in which the stem cells of the model were seeded. Triplicate replicates were used for each concentration. At the same time, the well in which the medium containing 0.1% DMSO was added as blank control. After the incubation of 18-24 h at 37° C. (5% CO2), the cells were lysed with cell lysis buffer CCLR (Promega), and the luciferase activity were detected using the method according to the instruction of the detection system of reporter gene, Luciferase Assay System (Promega).
The activity of luciferase resulting from the stimulation of the compounds at different concentrations was calculated using the following formula:
Regulation rate=Luciferase activity of compound-treated cells/Luciferase activity of DMSO-treated cells×100%

[2] = system: MCT-PAH rats; assay: Monocrotaline induced PAH rat model (MCT-PAH); assay type: in vivo, Sprague-Dawley rats; settings: 4.5 mg/kg intragastric gavage, three weeks after MCT
Procedure: In vivo experiments with MCT-PAH rats: Monocrotaline (MCT, 55 mg/kg) or saline were administrated subcutaneously in single dose to male Sprague-Dawley rats (supplied by Nation Institutes for Food and Medicament Control). Three weeks after the injection of MCT, 4.5 mg/kg of piperidino pyrazolopyrimidine compound (A), saline or positive control (Sildenafil) were administrated respectively to the rats by intragastric gavage. Two weeks after the administration, the right ventricular systolic pressure (RVSP) was measured and the survival rate was calculated with the data of RVSP recorded in BL-420E system (FIG. 13).

[3] = system: phosphodiesterase; assay: Inhibitory effect on phosphodiesterase; assay type: biochemical
[4] = system: endothelial cells; assay: Angiogenesis of endothelial cells on Matrigel; assay type: cell-based; settings: 2-8 hours; for ability of angiogenesis compared with control: ECs on Matrigel
Procedure: The endothelial cells were grown in complete culture medium (1% FBS in SFM) to confluency. One day before the experiment of angiogenesis, the medium was replaced by 0.2% FBS SFM to starve the cells for 16 hours. One the day before the experiment, Matrigel (Corning, 10 mg/ml) was put on ice overnight for thawing, and on the day of experiment, Matrigel was added in the wells of the pre-chilled 96-well plate (50 μl per well) and was distributed evenly in the wells. Then the plate was put in the incubator and incubated at 37 □ for 30 mins. Afterwards, the medium for starvation was removed and the cells were washed twice with DPBS, then Accutase enzyme was added to digest the cells for 1 minute. Later on, the SFM medium for starvation was added to resuspend the cells, and the cells were gently pipetted to form single cell suspension and centrifuged in room temperature at 1000 rpm for 4 mins. The cells were resuspended in SFM medium for starvation and counted. Then, the cells were seeded in 1×10^4 cells per well, and were gently shook to distributed evenly before putting in the incubator at 37 □. The angiogenesis was observed within 2-8 hours.

[5] = system: Id1 promoter driven Venus-Luci dual reporter gene in ID1-V-LUC hES; assay: ID1-V-LUC hES differentiated cells stimulated with BMP4, luciferase activity; assay type: cell-based, human; settings: after 4 hours of stimulation with 6.25 ng/mL of BMP4, differentiated cells
Procedure: Id1-Venus-Luc-MC1-DTA plasmid was linearized with AsiSI, and then the resulting plasmid was electroporated into human embryonic stem cells (H9) of P57 (a commercially available human embryonic stem cells which could be passage to expand). At 37° C., CO2 5%, the cells were cultured on the DR4 MEF-feeder-cells (APPLIEDSTEMCELL, Inc., U.S.) with the medium containing serum replacement, and the medium was replaced by fresh medium daily. BioRad electroporation machine (ZAP: 250 V, uF 500, TC 8.6) was used for electroporation, then 19 clones were screened out using puromycin, and the clones with green fluorescence were picked out (the cells containing MC1-DTA plasmid cannot survive). The consistency between fluorescent activity and expression of endogenous Id gene was measured (FIG. 8).
The luciferase activity increased over time (0, 1, 2 and 5 hours) after the stimulation with of BMP4. The effect of external stimulus on the expression of Id gene can be reflected maximally by expression level of luciferase. Therefore, clone 2 (named as ID1-V-LUC hES) was selected and was used to carry out the secondary screening for the compounds (FIG. 9). ID1-V-LUC hES was differentiated toward early mesoderm, also the vascular cell with smooth muscle cell markers (α SMA, Calponin) were obtained. […]

Row | Molecule | expression level of luciferase of the stem cells of the model ([1]; 5, 2.5, 1.25, 0.625, 0.3 μg/mL) | peak expression level of luciferase (regulation rate) ([1]; concentration of the compound 2.5 μg/mL, vs DMSO) [fold] | pulmonary arterial pressure (right ventricular systolic pressure, RVSP) of MCT-PAH rats ([2]; measured two weeks after the administration) | survival rate of the rats with MCT-PAH ([2]; two weeks after the administration) | inhibitory effect on phosphodiesterase [3] | ability of angiogenesis relative to VEGF treated ECs ([4]; 1 μM) | ability of angiogenesis compared with control ([4]; 1 μM) | ability of angiogenesis relative to VEGF treated ECs ([4]; 5 μM) | ability of angiogenesis compared with control ([4]; 5 μM) | regulation rate of ID1-V-LUC [5] [fold]
1 | c1ccc(-n2ncc3c(N4CCCCC4)ncnc32)cc1 [piperidino pyrazolopyrimidine compound, 1H-Pyrazolo[3,4-d]pyrimidine,1-phenyl-4-(1-piperidinyl)-] | up-regulated | 3.31 | decreased significantly | increased obviously | weak inhibitory effect | comparable | significantly increased | comparable | significantly increased | –
2 | BMP4: BMP ligand (Peprotech) used to stimulate ID1-V-LUC hES cells (protein, UniProt P12644 293-408, looked up) Bone morphogenetic protein 4: SPKHHSQRARKKNKNCRRHSLYVDFSDVGWNDWIVAPPGYQAFYCHGDCPFPLADHLNSTNHAIVQTLVNSVNSSIPKACCVPTELSAISMLYLDEYDKVVLKNYQEMVVEGCGCR | – | – | – | – | – | – | – | – | – | 7.5
